Assay results published in publication PMC9841524, “Structure-Based Rational Design of Small α-Helical Peptides with Broad-Spectrum Activity against Multidrug-Resistant Pathogens” (Journal of Medicinal Chemistry, 2022).
≈ marks a conversion by molar mass, not a printed value. Read-outs that look alike come from different tables or passages of the source. Where no end group is shown, it is not given here.

Experiments:
E. faecium (ATCC 700221) = test: microbe, parasite or virus in culture; conditions: Enterococcus faecium, ATCC700221, 24 h, read-out: MIC, E. faecium (ATCC 700221)
Method: (§1) Description of the characteristics and growth conditions of various bacterial strains used in the study are provided in the Supporting Information (Table S3). Antibacterial susceptibility testing was carried out using a standard microtiter dilution method recommended by the clinical and laboratory standard institute (CLSI) and measured as a minimum inhibitory concentration (MIC), the lowest peptide concentration that inhibited bacterial growth. Briefly, the overnight grown cultures in the recommended broth for each bacterial strain were diluted in cation-adjusted Mueller Hinton Broth (CAMHB) to give an inoculum of 10^6 colony-forming units (CFU)/mL. A 2-fold serially diluted test peptide solution (100 μL) was added to the microtiter plates. After adding bacterial suspension (100 μL), the plates were incubated at 37 °C for 24 h, and the MICs were determined. The same protocol was used to determine the MICs in the presence of salts and serum except using the media supplemented with various cationic salts (150 mM NaCl, 4.5 mM KCl, 6 mM NH4Cl, 1 mM MgCl2, and 2 mM CaCl2) or 25% FBS. The data was acquired from three independent assays performed in triplicate.
(§2) The bacterial strains employed in this study were obtained from the American Type Culture Collection (ATCC). Each strain was propagated as recommended by the ATCC, and each strain was stored as a frozen glycerol stock at -80°C. A bacterial colony was grown on the appropriate agar as indicated in Table S1 and was used to inoculate the appropriate broth. The culture was incubated at the appropriate conditions, as mentioned in Table S1. Following the incubation, the culture was diluted to an optical density 625 nm (OD625) of 0.1 in cation adjusted Mueller Hinton Broth (CAMHB), which is equivalent to 1 × 10^8 CFU/mL. The culture was further diluted to 1 × 10^6 CFU/mL, which was used to conduct the MIC determination assay. For the S. pneumoniae strains, CAMHB + 2.5% lysed horse blood was required for the assay. The strains with their […]
(§3) Table S3. Description of the characteristics and growth conditions of various bacterial strains

E. faecium (ATCC 27270) = test: microbe, parasite or virus in culture; conditions: Enterococcus faecium, ATCC27270, 24 h, read-out: MIC, E. faecium (ATCC 27270)
Method: as §1, §2, §3

E. faecalis (ATCC 51575) = test: microbe, parasite or virus in culture; conditions: Enterococcus faecalis, ATCC51575, 24 h, read-out: MIC, E. faecalis (ATCC 51575)
Method: as §1, §2, §3

[1] = system: K. pneumoniae (ATCCBAA-1705); test: MIC, standard microtiter dilution (CLSI); type: cell-based, Klebsiella pneumoniae; conditions: broth microdilution (CLSI), CAMHB, 37 °C, 24 h
Method in brief: (§4)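 Inoculum 10^6 CFU/mL in CAMHB against 2-fold peptide series; salt variants used 150 mM NaCl, 4.5 mM KCl, 6 mM NH4Cl, 1 mM MgCl2, 2 mM CaCl2, or 25% FBS.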

[2] = Relative hydrophobicity as RP-HPLC retention time; type: physicochemical; conditions: chromatographic, Phenomenex Luna C18 4 μm 150 × 4.6 mm, linear AB gradient 1% acetonitrile/min, 0.3 mL/min, A water 0.1% TFA, B acetonitrile 0.1% TFA, 25 °C
Method: The purity analysis of the peptides was conducted on a RP-HPLC system (Shimadzu; LC-20ADXR) by using a Phenomenex (Luna) analytical C18 column (4 μm, 150 × 4.6 mm). The mass of the purified peptides was determined in the positive-ion mode using Q-TOF LC/MS (Compass Hystar 4.1, Bruker, USA). The purity (>95%) and mass data of all the synthesized peptides are provided in the Supporting Information.
8. Comparative Hydrophobicity analysis
The purity of all synthesized peptides was determined using reverse phase analytical HPLC
(Shimadzu; LC-20ADXR). Below mentioned are the conditions used to conduct the purity
Column: Phenomenex (Luna), 4 um, C18, 150 × 4.6 mm
Mobile Phase: Buffer A-Water containing 0.1% TFA,
Buffer B-Acetonitrile containing 0.1% TFA
Figure S52. HPLC chromatogram of 6a.
(1 picture or pasted object on this page, not shown here)

[3] = system: human red blood cells (hRBCs); test: Hemolytic assay; type: cell-based; conditions: 2 h, 37 °C
Method in brief: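 Percent hemolysis uses PBS as 0% and 1% Triton X-100 as 100% references, from supernatant absorbance at 567 nm. Red cells (4% in PBS, equal volume) exposed 2 h at 37 °C without agitation to 2-fold serially diluted peptide.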

[4] = system: P. aeruginosa (ATCC 27883); test: MIC, standard microtiter dilution (CLSI); type: cell-based, Pseudomonas aeruginosa; conditions: broth microdilution (CLSI), CAMHB, 37 °C, 24 h
Method in brief: as §4

S. aureus (ATCC 29213) = test: MIC, standard microtiter dilution (CLSI); type: cell-based; conditions: broth microdilution (CLSI), CAMHB, 37 °C, 24 h
Method in brief: as §4

MRSA (ATCC BAA-1556) = conditions: broth microdilution (CLSI), CAMHB, 37 °C, 24 h
Method in brief: as §4

E. coli (ATCC 25922) = conditions: broth microdilution (CLSI), CAMHB, 37 °C, 24 h
Method in brief: as §4

[5] = CD spectroscopy, helicity; type: physicochemical; parameters: key to Δ[θ]222 induced by TFE / Δ[θ]222 induced by Liposomes: mean residue molar ellipticity, mdeg cm2/(dmol × res);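 as to % of helicity induced by Liposomes: share of the total helicity with liposomes gained over the same peptide in PBS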;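 as to % of helicity induced by TFE: share of the total helicity in TFE gained over the same peptide in PBS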
Method: The CD spectra of peptides were recorded using a Jasco J-1500 CD spectrophotometer (Jasco, Easton, MD) at 25 °C with a 1 mm path length cell. Wavelengths from 190 to 260 nm were scanned with 1.0 nm step resolution, 100 nm/min speed, 0.4 s response time, and 1 nm bandwidth. CD spectra of the peptides were collected and averaged over three scans in 10 mM sodium phosphate buffer (pH 7.2), helix-inducing solvent 50% TFE (v/v), and bacterial mimic liposomes (75 μM lipid). Spectra were corrected by subtracting a baseline spectrum containing only buffer or 50% TFE or liposomes. The mean residue molar ellipticity was calculated using the formula [drawing 3] where Ab222 is the absorbance observed at 222 nm, MRW is the mean residue molecular weight, C is the concentration in mg/mL, and L is the path length.
Table S1. RP-HPLC retention times and CD spectroscopy analysis of the selected peptides Peptide tR (min)a [θ]222b Δ[θ]222 induced by % of helicity inducedc by PBS TFE Liposomes TFE Liposomes TFE Liposomes […]
atR (min) denotes the retention time at 25°C by RP-HPLC. bThe mean residue molar ellipticity [θ] 222 (mdeg cm2/(dmol × res)) at 222 nm was measured at 25 °C in phosphate buffer saline (PBS, pH 7.0), in aqueous buﬀer containing 50% TFE (TFE), or in presence of bacterial membrane mimicking liposomes (peptide:lipid […]
c% helix induced is the increase in the molar ellipticity at 222 nm (in percentage) of a peptide in the presence of TFE or liposomes.

[6] = 10^6 CFU/mL, highest MIC of three independent experiments in triplicate

**Q.** What does the source list for `CN[C@H](CC(C)C)C(=O)N[C@H]1C(=O)N[C@@H](CC(N)=O)C(=O)N[C@H]2C(=O)N[C@H]3C(=O)N[C@H](C(=O)N[C@H](C(=O)O)c4cc(O)cc(O)c4-c4cc3ccc4O)[C@H](O)c3ccc(c(Cl)c3)Oc3cc2cc(c3O[C@@H]2O[C@H](CO)[C@@H](O)[C@H](O)[C@H]2O[C@H]2C[C@](C)(N)[C@H](O)[C@H](C)O2)Oc2ccc(cc2Cl)[C@H]1O` [vancomycin, reference compound]?
**A.** MIC (E. faecium (ATCC 700221)): > 50 µg/mL; MIC (E. faecium (ATCC 27270)): 1.5 µg/mL (≈ 1.04 µM); MIC (E. faecalis (ATCC 51575)): > 50 µg/mL

**Q.** What does the source list for KWAKKWWKWWKK-NH2 [6e]?
**A.** MIC, K. pneumoniae (ATCCBAA-1705) [1, 6]: 50 µg/mL; MIC, K. pneumoniae (ATCCBAA-1705) ([1]; value in parentheses (μM)): 27.96 µM; tR, RP-HPLC retention time (measure of overall hydrophobicity) [2]: 29.87 min; HC50 (concentration at which 50% hemolysis was observed) ([3]; hRBC suspension 4% in PBS, hemoglobin release at 567 nm, 1% Triton X-100 = 100%): 360 µg/mL; HC50 (concentration at which 50% hemolysis was observed) ([3]; value in parentheses (μM), hRBC 4% in PBS, 567 nm): 201.32 µM; MIC, P. aeruginosa (ATCC 27883) [4, 6]: 25 µg/mL; MIC, P. aeruginosa (ATCC 27883) ([4]; value in parentheses (μM)): 13.98 µM; MIC, S. aureus (ATCC 29213) (S. aureus (ATCC 29213); [6]): 12.5 µg/mL; MIC, S. aureus (ATCC 29213) (S. aureus (ATCC 29213); value in parentheses (μM)): 6.99 µM; MIC, MRSA (ATCC BAA-1556) (MRSA (ATCC BAA-1556); [6]): 12.5 µg/mL; MIC, MRSA (ATCC BAA-1556) (MRSA (ATCC BAA-1556); value in parentheses (μM)): 6.99 µM; MIC, E. coli (ATCC 25922) (E. coli (ATCC 25922); [6]): 25 µg/mL; MIC, E. coli (ATCC 25922) (E. coli (ATCC 25922); value in parentheses (μM)): 13.98 µM; [θ]222 mean residue molar ellipticity, TFE ([5]; CD at 222 nm, 25 °C, aqueous buffer containing 50% TFE): -18419 mdeg cm2/(dmol × res); [θ]222 mean residue molar ellipticity, Liposomes ([5]; CD at 222 nm, 25 °C, bacterial membrane mimicking liposomes, peptide:lipid molar ratio 1:1.05): -13181 mdeg cm2/(dmol × res); [θ]222 mean residue molar ellipticity, PBS ([5]; CD at 222 nm, 25 °C, phosphate buffer saline pH 7.0): -7968 mdeg cm2/(dmol × res); Δ[θ]222 induced by TFE ([5]; difference to PBS, 50% TFE): -10451; Δ[θ]222 induced by Liposomes ([5]; difference to PBS, bacterial membrane mimicking liposomes): -5213; % of helicity induced by TFE ([5]; increase in molar ellipticity at 222 nm in the presence of 50% TFE): 56.74%; % of helicity induced by Liposomes ([5]; increase in molar ellipticity at 222 nm in the presence of liposomes): 39.55%
